# “Also recorded” adds a separate entry of the source.
# System: bacteria
# Experiment: Binding of targeting peptides to microorganisms (Table 3)
# Settings: microorganism bound by the targeting peptide; binding in aqueous buffers chosen by peptide solubility, preferably 1x PBS
row,Substance,Target(s)
1,PF-372 (KKQDKRIEDKYKRMKKGD; Peptide with targeting and/or antimicrobial activity),C. jeikeium; also recorded: C. jejuni
2,PF-097 (QPTQGEQGTRPRRPTPMRGLLI; Peptide with targeting and/or antimicrobial activity),C. jeikeium
3,PF-237 (YVKPKVGVHE; Peptide with targeting and/or antimicrobial activity),S. epidermidis
4,PF-364 (LVNGIKI; Peptide with targeting and/or antimicrobial activity),S. epidermidis; also recorded: B. fragilis; also recorded: P. aeruginosa; also recorded: C. jeikeium; also recorded: C. jejuni
5,PF-246 (QPDEKAEFFDPSLDKVYRHPTFYHIPDGIEHM; Peptide with targeting and/or antimicrobial activity),S. mutans
6,PF-282 (QNNDTSAWCGSAHKNGNS; Peptide with targeting and/or antimicrobial activity),S. mutans
7,PF-142 (GIDRGCQAAR; Peptide with targeting and/or antimicrobial activity),S. mutans
8,PF-160 (SFHASLTKNEKPIKSTG; Peptide with targeting and/or antimicrobial activity),S. epidermidis
9,PF-230 (EDKPTNTIQEIKPVKWQ; Peptide with targeting and/or antimicrobial activity),S. mutans
10,PF-155 (GRYGDDSKERQGRAQ; Peptide with targeting and/or antimicrobial activity),C. jeikeium
11,PF-352 (RVKKIG; Peptide with targeting and/or antimicrobial activity),C. jeikeium
12,PF-147 (RRPRRRRSGHGQSASAA; Peptide with targeting and/or antimicrobial activity),S. epidermidis and M. luteus and MRSA
13,PF-206 (KLRSASKKSLQEKSCGIMPEKPAG; Peptide with targeting and/or antimicrobial activity),M. luteus; also recorded: C. albicans; also recorded: C. jeikeium; also recorded: C. jejuni
14,PF-384 (HISKERFEAY; Peptide with targeting and/or antimicrobial activity),E. faecalis; also recorded: C. jeikeium; also recorded: C. jejuni
15,PF-285 (VPAKLLRVIDEIPE; Peptide with targeting and/or antimicrobial activity),S. mutans
16,PF-326 (VIVGNLGAQKEKRNDTPISAKKDIMGDKTVRVRADLHH; Peptide with targeting and/or antimicrobial activity),S. mutans; also recorded: E. coli
17,PF-324 (HFSLL; Peptide with targeting and/or antimicrobial activity),C. difficile
18,PF-253 (VRDDDS; Peptide with targeting and/or antimicrobial activity),S. epidermidis; also recorded: M. luteus
19,PF-161 (RGRALASTATTRPARRRR; Peptide with targeting and/or antimicrobial activity),S. epidermidis; also recorded: M. luteus; also recorded: E. coli; also recorded: C. jejuni

# Same assay, conditions: microorganism the targeting peptide binds; binding in aqueous buffers that varied with peptide solubility, preferably 1x PBS
row,Substance,Target(s)
1,1T-258 (TINIDDKVLDYLKKINSKAITIDLIGCAS; Peptide with targeting and/or antimicrobial activity) [Peptide 1T-258],A. naeslundii; also recorded: F. nucleatum; also recorded: P. gingivalis; also recorded: T. denticola; also recorded: S. mitis; also recorded: S. mutans; also recorded: S. oralis
2,1T-274 (ETTTEINAIKLHRIKQRSPQGTRRVN; Peptide with targeting and/or antimicrobial activity) [Peptide 1T-274],F. nucleatum; also recorded: S. mutans; also recorded: S. oralis; also recorded: S. sanguinis
3,PF-047 (NQEPSLQQDKEQKDNKG; Peptide with targeting and/or antimicrobial activity),S. mutans
4,PF-038 (MAYKDEGKETKFAVKGYKD; Peptide with targeting and/or antimicrobial activity),M. luteus
5,1T-289 (EPSADIYLSAKDTKT; Peptide with targeting and/or antimicrobial activity) [Peptide 1T-289],F. nucleatum; also recorded: P. gingivalis; also recorded: S. gordonii; also recorded: S. mitis; also recorded: S. mutans; also recorded: S. oralis; also recorded: S. sanguinis

# Same assay, conditions: peptide binding in aqueous buffers that varied depending on peptide solubility; preferably 1x PBS
Substance,Target(s) (microorganism bound by the targeting peptide),Target(s) (microorganisms bound by the targeting peptide)
PF-C063 (SHFRKGD; Peptide with targeting and/or antimicrobial activity),A. naeslundii; also recorded: F. nucleatum; also recorded: S. mutans,
PF-724 (CYRFLTPKRPTRIS; Peptide with targeting and/or antimicrobial activity),L. pneumophila,
PF-493 (PGAFFFCRGRGCWCGIGW; Peptide with targeting and/or antimicrobial activity),,S. mutans; also recorded: B. subtilis; also recorded: E. coli
PF-648 (ARRYPAAGS; Peptide with targeting and/or antimicrobial activity),S. mutans; also recorded: E. coli,
PF-489 (KVDRVSTTITEKIK; Peptide with targeting and/or antimicrobial activity),,S. mutans
PF-716 (HGENHHHKSDEKDNDSSEKKD; Peptide with targeting and/or antimicrobial activity),S. mutans,
PF-507 (LALSIANLFKKKA; Peptide with targeting and/or antimicrobial activity),,S. mutans; also recorded: E. coli
PF-C080 (INIPGLF; Peptide with targeting and/or antimicrobial activity),A. naeslundii; also recorded: F. nucleatum; also recorded: S. mutans,
PF-783 (FTSEVRGVFTYRVNKAGLITNMRGYWNLDMMTFGNQE; Peptide with targeting and/or antimicrobial activity),Mycobacteria spp.,
PF-706 (LGYGAWIGCGLGLNGFHRID; Peptide with targeting and/or antimicrobial activity),L. pneumophila,
PF-C008 (AQPRRTWLVNFGEVPSPGLTNDGMPDH; Peptide with targeting and/or antimicrobial activity),A. naeslundii,
PF-495 (KGIYKKRTY; Peptide with targeting and/or antimicrobial activity),,S. mutans; also recorded: E. coli

# Same assay, conditions: peptide binding in aqueous buffers varied by peptide solubility; preferably 1x PBS
row,Substance,Target(s) (microorganism bound by the targeting peptide)
1,1T-21 (YVEEAVRAALKKEARISTEDTPVNLPSFDC; Peptide with targeting and/or antimicrobial activity) [Peptide 1T-21],S. mutans; also recorded: P. aeruginosa
2,1T-91 (TSVRPGAAGAAVPAGAAGAAGAGWRWP; Peptide with targeting and/or antimicrobial activity) [Peptide 1T-91],S. mitis; also recorded: S. mutans; also recorded: S. oralis; also recorded: S. sanguinis
3,1T-159 (IFSLHHFALICSEMGTFAVSKRAKYKWEVL; Peptide with targeting and/or antimicrobial activity) [Peptide 1T-159],P. gingivalis
4,1T-52 (DEYPAKLPLSDKGATEPRRH; Peptide with targeting and/or antimicrobial activity) [Peptide 1T-52],S. aureus; also recorded: C. xerosis; also recorded: P. aeruginosa
5,1T-23 (PALVDLSNKEAVWAVLDDHS; Peptide with targeting and/or antimicrobial activity) [Peptide 1T-23],S. mutans; also recorded: P. aeruginosa
6,1T-33 (VRTLTILVIFIFNYLKSISYKLKQPFENNLAQSMISI; Peptide with targeting and/or antimicrobial activity) [Peptide 1T-33],S. aureus; also recorded: S. epidermidis; also recorded: C. jeikeium; also recorded: C. xerosis; also recorded: C. striatum; also recorded: P. aeruginosa
7,1T-141 (KKFIILLFILVQGLIFSATKTLSDIIAL; Peptide with targeting and/or antimicrobial activity) [Peptide 1T-141],F. nucleatum; also recorded: P. gingivalis; also recorded: S. epidermidis; also recorded: S. gordonii; also recorded: S. mitis; also recorded: S. mutans; also recorded: S. oralis; also recorded: S. sanguinis
8,1T-34 (AFWLNILLTLLGYIPGIVHAVYIIAKR; Peptide with targeting and/or antimicrobial activity) [Peptide 1T-34],S. aureus; also recorded: S. epidermidis; also recorded: C. jeikeium; also recorded: C. xerosis; also recorded: C. striatum; also recorded: P. aeruginosa
9,1T-7 (SQRIIEPVKSPQPYPGFSVS; Peptide with targeting and/or antimicrobial activity) [Peptide 1T-7],M. xanthus
10,1T-99 (MKAWLGQ; Peptide with targeting and/or antimicrobial activity) [Peptide 1T-99],S. gordonii; also recorded: S. mitis; also recorded: S. mutans; also recorded: S. oralis; also recorded: S. sanguinis
11,1T-76 (EMRLSKFFRDFILWRKK; Peptide with targeting and/or antimicrobial activity) [Peptide 1T-76],S. pneumoniae
12,1T-14 (ALAGLAGLISGK; Peptide with targeting and/or antimicrobial activity) [Peptide 1T-14],S. mutans; also recorded: S. aureus; also recorded: S. epidermidis; also recorded: C. xerosis

# Reference: patent US9597407B2, “Targeted antimicrobial moieties” (C3 Jian, Inc., priority 2009, dated 2017)
